Counter-ions that a name gives are not always drawn. Like-named read-outs stand apart in the source and are kept apart here.
Assays:
[1] = tested on: Ras-CVLS processing in COS cells; assay: Cell-based COS cell assay: inhibition of Ras processing (Ras-CVLS); set-up: species or system monkey
Description: Transient expression of val^12 -Ha-Ras-CVLS and […] -Ha-Ras-CVLL in COS monkey kidney cells: Effect of farnesyl protein transferase inhibitors on Ras processing and on disordered cell growth induced by transforming Ras.
COS monkey kidney cells were transfected by electroporation with the plasmid pSV-SPORT (Gibco/BRL) containing a cDNA insert encoding either Ras-CVLS or Ras-CVLL, leading to transient overexpression of a Ras substrate for either farnesyl protein transferase or geranylgeranyl protein transferase I, respectively (see above).
Following electroporation, cells were plated into 6-well tissue culture dishes containing 1.5 ml of Dulbecco's-modified Eagle's media (GIBCO, Inc.) supplemented with 10% fetal calf serum and the appropriate farnesyl protein transferase inhibitors. After 24 hours, media was removed and fresh media containing the appropriate drugs was re-added.
48 hours after electroporation cells were examined under the microscope to monitor disordered cell growth induced by transforming Ras. Cells expressing transforming Ras become more rounded and refractile and overgrow the monolayer, reminiscent of the transformed phenotype. Cells were then photographed, washed twice with 1 ml of cold phosphate-buffered saline (PBS) and removed from the dish by scraping with a rubber policeman into 1 ml of a buffer containing 25 mM Tris, pH 8.0; 1 mM ethylenediamine tetraacetic acid; 1 mM phenylmethylsulfonyl fluoride; […]; and 0.1 mM pepstatin. Cells were lysed by homogenization and cell debris was removed by centrifugation at 2000× g for 10 min.
Cellular protein was precipitated by addition of ice-cold trichloroacetic acid and redissolved in […] of SDS-electrophoresis sample buffer. […] Proteins resolved on the gels were electroblotted onto nitrocellulose membranes for immunodetection.
After washing, membranes were incubated for one hour at room temperature with a 1:5000 dilution of secondary antibody, rabbit anti-rat lgG conjugated to horseradish peroxidase, in PBS containing 1% fetal calf serum. The presence of processed and unprocessed Ras-CVLS or Ras-CVLL was detected using a colorimetric peroxidase reagent (4-chloro-1-naphthol) as described by the manufacturer (Bio-Rad).

[2] = target: T1, farnesyl protein transferase (FPT) (Rattus norvegicus, UniProt Q02293+Q04631); assay: In vitro enzyme assay: inhibition of farnesyl protein transferase (FPT), [3H]farnesyl transfer to Ras-CVLS; type: biochemical
T1 construct: were partially purified from rat brain by ammonium sulfate fractionation; from tissue; host or cells: rat brain (ammonium sulfate fractionation, Q-Sepharose)
Description: 1. In vitro enzyme assays:
Inhibition of farnesyl protein transferase and geranylgeranyl protein transferase.
Human farnesyl protein transferase was also expressed in E. coli, using cDNA clones encoding both the a and b subunits. […] Human farnesyl protein transferase was partially-purified from the soluble protein fraction of E. coli as described above. […] Two forms of val^12 -Ha-Ras protein were prepared as substrates for these enzymes, differing in their carboxy terminal sequence. One form terminated in cysteine-valine-leucine-serine (Ras-CVLS) the other in cystein-valine-leucine-leucine (Ras-CVLL). Ras-CVLS is a substrate for the farnesyl protein transferase while Ras-CVLL is a substrate for geranylgeranyl protein transferase I. The cDNAs encoding these proteins were constructed so that the proteins contain an amino-terminal extension of 6 histidine residues. Both proteins were expressed in Escherichia coli and purified using metal chelate affinity chromatography. The radiolabelled isoprenyl pyrophosphate substrates, [^3 H]farnesyl pyrophosphate and [^3 H] geranylgeranyl pyrophosphate, were purchased from DuPont/New England Nuclear.
The reaction was allowed to proceed for 30 minutes at room temperature and then stopped with 0.5 ml of 4% sodium dodecyl sulfate (SDS) followed by 0.5 ml of cold 30% TCA. Samples were allowed to sit on ice for 45 minutes and precipitated Ras protein was then collected on GF/C filter paper mats using a Brandel cell harvester. […] Percent inhibition was calculated relative to the DMSO vehicle control.

[3] = tested on: DLD-1 (human colon carcinoma cells); assay: In vivo anti-tumor studies, subcutaneous DLD-1 tumors in athymic nu/nu mice; set-up: species or system athymic nu/nu female mice; conditions: Mus musculus, DLD-1, po, read-out: Average % Tumor Inhibition
Description: Tumor bearing animals are selected and randomized when the tumors are established. Animals are treated with vehicle (β-cyclodextrin for i.p. or corn oil for p.o.) only or with a compound of the present invention in vehicle four times a day (QID) for 7 days per week for 4 weeks. The percent inhibition of tumor growth relative to vehicle controls is determined by tumor measurements.

[4] = tested on: Normal human HEPM fibroblasts; assay: Cell mat assay, normal cells (cell mat); type: cell-based; conditions: read-out: Normal IC50
Description: (§1) Compound-induced colony inhibition was assayed by addition of serial dilutions of compound directly to the growth medium 24 h after tumor cell planting, and incubating cells for an additional 14 d to allow colony formation. Assays were terminated by rinsing monolayers twice with phosphate-buffered saline (PBS), fixing the monolayers with a 1% glutaraldehyde solution in PBS, then visualizing tumor cells by staining with X-Gal (Price, J., et al., Lineage analysis in the vertebrate nervous system by retrovirus-mediated gene transfer, Proc. Natl. Acad. Sci.84, 156-160(1987)). […] Both IC50 values were obtained by determining the density of tumor cells and mat cells by visual inspection and enumeration of cells per colony and the number of colonies under the microscope.

[5] = tested on: DLD-1-BAG human colon carcinoma cells; assay: Cell mat assay, DLD-1-BAG tumor cells; type: cell-based; conditions: read-out: Tumor (DLD-1) IC50
Description: as §1
(§2) Additional assays were carried out by following essentially the same procedure as described above, but with substitution of alternative indicator tumor cell lines in place of the T24-BAG cells. The assays were conducted using either DLD-1-BAG human colon carcinoma cells expressing as activated K-ras gene or SW620-BAG human colon carcinoma cells expressing an activated K-ras gene.

[6] = tested on: T24-BAG4 human bladder carcinoma cells expressing an activated H-ras gene; assay: Cell mat assay, T24-BAG4 tumor cells; type: cell-based; conditions: read-out: Tumor (T-24) IC50
Description: as §1

[7] = tested on: SW620-BAG human colon carcinoma cells expressing an activated K-ras gene; assay: Cell mat assay, SW620-BAG tumor cells; type: cell-based
Description: as §1, §2

[8] = Primates, COS, read-out: Inhibition of Ras Processing IC50, Table 3, COS cells
[9] = […], Experiment No. 1, 50 mg/kg p.o., QID, 7 days per week for 4 weeks
[10] = […], Experiment No. 2, 10 mg/kg p.o., QID, 7 days per week for 4 weeks
[11] = […], Experiment No. 3, 50 mg/kg p.o., QID, 7 days per week for 4 weeks
[12] = […], Experiment No. 4, 10 mg/kg p.o., QID, 7 days per week for 4 weeks
[13] = Table 3, COS cells, read-out: Inhibition of Ras Processing IC50
[14] = Homo sapiens, SW-620, 336 h, Mat assay, 14 d, read-out: Tumor (SW620) IC50
[15] = Homo sapiens, 336 h, Mat assay, 14 d

O=C(Cc1cc[n+]([O-])cc1)N1CCN(C2c3ncc(Br)cc3CCc3cc(Cl)cc(Br)c32)CC1 (stereo not shown) [Example 11]
IC50 [1, 8]: < 250 nM

O=C(Cc1cc[n+]([O-])cc1)N1CCC(C2c3ccc(Cl)c(Br)c3CCc3cc(Br)cnc32)CC1 (single isomer, unassigned) [Example 14A · HCl salt]
IC50 ([2]; Table 1, Ras-CVLS substrate, 30 minutes at room temperature, read-out: FPT IC50): < 3.1 nM

O=C(Cc1cc[n+]([O-])cc1)N1CCN([C@H]2c3ccc(Cl)c(Br)c3CCc3cc(Br)cnc32)CC1 [Example 5 · HCl salt]
IC50 [1, 8]: 10 nM

O=C(Cc1cc[n+]([O-])cc1)N1CCN([C@@H]2c3ncc(Br)cc3CCc3cc(Cl)cc(Br)c32)CC1 [Example 11B]
inhibition in vivo at 10 mg/kg ([3]; […]): 17% | inhibition in vivo at 50 mg/kg ([3]; […]): 38.8%

NC(=O)N1CCC(CC(=O)N2CCC(C3c4ccc(Cl)cc4C=Cc4cc(Br)cnc43)CC2)CC1 (stereo not shown) [Example 1]
inhibition in vivo at 50 mg/kg [3, 9]: 38.2% | inhibition in vivo at 10 mg/kg [3, 10]: 17.2% | inhibition in vivo at 50 mg/kg [3, 11]: 35.4% | inhibition in vivo at 10 mg/kg [3, 12]: 34%

O=C(Cc1cc[n+]([O-])cc1)N1CCN([C@H]2c3ccc(Cl)c(Br)c3CCc3cc(Br)cnc32)CC1 [Example 5]
inhibition in vivo at 10 mg/kg ([3]; […]): 24% | inhibition in vivo at 50 mg/kg ([3]; […]): 38%

NC(=O)N1CCC(CC(=O)N2CCC(=C3c4ncc(Br)cc4CCc4cc(Cl)cc(Br)c43)CC2)CC1 [Example 8B]
IC50 ([4]; Mat assay, 14 d, normal cells): > 25 µM | IC50 ([5]; Mat assay, 14 d): < 1.6 µM | IC50 [1, 13]: 280 nM | IC50 ([6]; Mat assay, 14 d): < 1600 nM | inhibition in vivo at 50 mg/kg [3, 9]: 62.5% | inhibition in vivo at 10 mg/kg [3, 10]: 29.2% | IC50 ([7]; Mat assay, 14 d, read-out: Tumor (SW620) IC50): 3.1 µM

NC(=O)N1CCC(CC(=O)N2CCC(C3c4ccc(Cl)c(Br)c4CCc4cc(Br)cnc43)CC2)CC1 (stereo not shown) [Example 13B]
IC50 [7, 14]: > 3.1 µM

NC(=O)N1CCC(CC(=O)N2CCC(=C3c4ncc(Br)cc4CCc4cc(Cl)cc(Br)c43)CC2)CC1 [Example 8A]
IC50 ([4]; Homo sapiens, Fibroblast, 336 h, Mat assay, 14 d, normal cells): > 25 µM | IC50 ([5]; Homo sapiens, DLD-1, 336 h, Mat assay, 14 d): < 1.6 µM | IC50 [1, 13]: > 1000 nM | IC50 [6, 15]: < 1600 nM | IC50 [7, 14]: 3.1 µM

O=C(Cc1cc[n+]([O-])cc1)N1CCC([C@@H]2c3ncc(Br)cc3CCc3cc(Cl)cc(Br)c32)CC1 [Example 9A]
IC50 ([1]; Primates, COS, Table 3, COS cells, read-out: Inhibition of Ras Processing IC50): 850 nM | IC50 [2]: > 88 nM | IC50 [6, 15]: < 1600 nM

NC(=O)N1CCC(CC(=O)N2CCC(C3c4ccc(Cl)cc4CCc4cc(Br)cnc43)CC2)CC1 (stereo not shown) [Example 4]
inhibition in vivo at 50 mg/kg [3, 9]: 41% | inhibition in vivo at 10 mg/kg [3, 10]: 18% | inhibition in vivo at 50 mg/kg [3, 11]: 41% | inhibition in vivo at 10 mg/kg [3, 12]: 14%

O=C(Cc1cc[n+]([O-])cc1)N1CCN([C@@H]2c3ccc(Cl)c(Br)c3CCc3cc(Br)cnc32)CC1 [Example 5A]
IC50 ([4]; Homo sapiens, Fibroblast, 336 h): > 25 µM | IC50 ([5]; Homo sapiens, DLD-1, 336 h): 12.5 µM | IC50 [2]: > 99 nM | IC50 ([6]; Homo sapiens, 336 h): 12500 nM | IC50 ([7]; Homo sapiens, SW-620, 336 h, read-out: Tumor (SW620) IC50, Mat assay, 14 d): > 25 µM

O=C(Cc1cc[n+]([O-])cc1)N1CCC(=C2c3ncc(Br)cc3CCc3cc(Cl)cc(Br)c32)CC1 (racemic) [Example 7]
inhibition in vivo at 50 mg/kg [3, 9]: 76.5% | inhibition in vivo at 10 mg/kg [3, 10]: 35.1%

O=C(Cc1cc[n+]([O-])cc1)N1CCN([C@H]2c3ccc(Cl)cc3CCc3cc(Br)cnc32)CC1 [Example 16B]
inhibition in vivo at 10 mg/kg ([3]; […]): 50% | inhibition in vivo at 50 mg/kg ([3]; […]): 77%

O=C(Cc1cc[n+]([O-])cc1)N1CCC(=C2c3ncc(Br)cc3CCc3cc(Cl)cc(Br)c32)CC1 [Example 7B]
IC50 ([4]; Mat assay, 14 d, normal cells): > 25 µM | IC50 [6, 15]: < 1600 nM

O=C(Cc1cc[n+]([O-])cc1)N1CCC([C@H]2c3ncc(Br)cc3CCc3cc(Cl)cc(Br)c32)CC1 [Example 9]
inhibition in vivo at 50 mg/kg [3, 9]: 68% | inhibition in vivo at 10 mg/kg [3, 10]: 19%

O=C(Cc1cc[n+]([O-])cc1)N1CCC(=C2c3ncc(Br)cc3CCc3cc(Cl)cc(Br)c32)CC1 [Example 7A]
IC50 [1, 13]: > 1000 nM | inhibition in vivo at 10 mg/kg ([3]; Experiment No. 2, 10 mg/kg p.o., QID, 7 days per week for 4 weeks): 33.7%

NC(=O)N1CCC(CC(=O)N2CCN(C3c4ncc(Br)cc4CCc4cc(Cl)cc(Br)c43)CC2)CC1 (single isomer, unassigned) [Example 12B]
inhibition in vivo at 50 mg/kg [3, 9]: 83% | inhibition in vivo at 10 mg/kg [3, 10]: 37.7%

NC(=O)N1CCC(CC(=O)N2CCC(C3c4ccc(Cl)c(Br)c4CCc4cc(Br)cnc43)CC2)CC1 (single isomer, unassigned) [Example 13]
inhibition in vivo at 50 mg/kg [3, 9]: 61% | inhibition in vivo at 10 mg/kg [3, 10]: 7% | IC50 [7, 14]: > 1.6 µM

O=C(Cc1cc[n+]([O-])cc1)N1CCC(C2c3ccc(Cl)c(Br)c3CCc3cc(Br)cnc32)CC1 (single isomer, unassigned) [Example 14A]
inhibition in vivo at 50 mg/kg [3, 9]: 59% | inhibition in vivo at 10 mg/kg [3, 10]: 48%

NC(=O)N1CCC(CC(=O)N2CCN([C@H]3c4ccc(Cl)c(Br)c4CCc4cc(Br)cnc43)CC2)CC1 [Example 6]
inhibition in vivo at 50 mg/kg [3, 9]: 61.2% | inhibition in vivo at 10 mg/kg [3, 10]: 35.4%

NC(=O)N1CCC(CC(=O)N2CCN([C@@H]3c4ccc(Cl)cc4CCc4cc(Br)cnc43)CC2)CC1 [Example 17]
IC50 [7, 14]: 25 µM

O=C(Cc1cc[n+]([O-])cc1)N1CCN([C@H]2c3ncc(Br)cc3CCc3cc(Cl)cc(Br)c32)CC1 [Example 11A]
inhibition in vivo at 10 mg/kg ([3]; […]): 44.8% | inhibition in vivo at 50 mg/kg ([3]; […]): 63.8%

Reference: patent US5874442A, “Tricyclic amides useful for inhibition of G-protein function and for treatment of proliferative disease” (Schering-Plough Corporation, priority 1996, dated 1999)
